Measured values published in patent publication US4575560A, “Insecticidal diaminoguanidine hydrazone compounds” (American Cyanamid Company, priority 1985, dated 1986).
≈ marks a conversion by molar mass, not a printed value. Where a name gives a salt, the structure may show the parent alone. Read-outs that look alike come from different tables or passages of the source.

How the values were obtained:
Southern Armyworm = assay: Southern armyworm test, third-instar larvae on treated Sieva lima bean leaves; assay type: in vivo, Spodoptera eridania (Cramer); conditions: for Mortality Rating Southern Armyworm: third-instar larvae; for LC50: Spodoptera eridania, read-out: LC50 Southern Armyworm
In short: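 Sieva lima bean plants, primary leaves expanded to 1.91 cm, were dipped with agitation for three seconds in test material dissolved in 65% acetone, with further dilutions in acetone, then air-dried in a hood. A treated leaf was placed in a 9 cm petri dish on moist filter paper with 10 third-instar Spodoptera eridania larvae about 1 cm long. Dishes were covered and kept at 80° F. and 50% r.h. Mortality and feeding were assessed after two days.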

[1] = tested on: Tobacco Budworm 1st Instar; assay: Tobacco budworm initial test, treated eggs / newly hatched (1st instar) larvae on treated cotton leaves; assay type: in vivo, Heliothis virescens (Fabricus)
Method: (§1) Test formulations and procedures used for evaluation are as follows:
A. 100 mg of the test material is weighed, placed in a funnel over a 113 g narrow-mouth bottle, rinsed into the bottle with a 35 mL scoop of acetone, followed by a 35 mL scoop of water and another 35 mL scoop of acetone to yield 1000 ppm in 65% acetone. If the material is not soluble, it is broken up with a glass rod and used as a suspension.
B. This stock solution ("A") is used to make 300 ppm solutions or suspensions by pipetting 30 mL of "A" into a bottle containing 70 mL of 50% acetone to yield 300 ppm. Further dilutions in 50% acetone are made as required.
C. Tests requiring 10 ppm acetone solutions: 1 mL of "A" is pipetted into 99 mL of acetone to yield 10 ppm. Additional dilutions are made using 50% acetone as required.
Tobacco Budworm--Heliothis virescens (Fabricus)
A cotton plant with two true leaves expanded is dipped for three seconds with agitation in 300 ppm solution. A 1.27 to 1.91 cm square of cheesecloth with about 50 to 100 budworm eggs 0-24 hours old is also dipped in the test solution and placed on a leaf of the cotton plant, all being placed in the hood to dry. The leaf with the treated budworm eggs is removed from the plant and placed in a 226 g Dixie cup with a wet 5 cm piece of dental wick and covered with a lid. The other leaf is placed in a similar cup with a wick and a piece of cheesecloth infested with 50-100 newly hatched larvae is added before covering the cup with a lid. After three days at 80° F., 50% relative humidity, observations of egg hatch are made, as well as kill of newly hatched larvae, any inhibition of feeding, or interference of any sort with normal development.

[2] = tested on: Tobacco Budworm 3rd Instar; assay: Tobacco budworm secondary test, third-instar larvae on treated cotton cotyledons; assay type: in vivo, Heliothis virescens (Fabricus)
Method: Three cotton plants with just expanded cotyledons are dipped in 1000 ppm solution and placed in the hood to dry. When dry, each cotyledon is cut in half, and 10 are each placed in a 28 g plastic medicine cup containing a 1.25 cm dental wick saturated with water, and one third-instar budworm larva is added. The cup is capped and held for three days at 80° F., 50% relative humidity, after which mortality counts are made.

Tobacco Budworm = assay: Tobacco budworm LC50 and FD50 (instar not stated); assay type: in vivo, Heliothis virescens (Fabricus)
From the text: as §1
FD50 = The concentration of insecticide required to reduce insect

[3] = Heliothis virescens; read-out: LC50 Tobacco Budworm

| Structure (SMILES) | Mortality Rating Southern Armyworm (Southern Armyworm; 100 ppm) | Mortality Rating Southern Armyworm (Southern Armyworm; 1000 ppm) | Mortality Rating Tobacco Budworm 1st Instar ([1]; 300 ppm) | Mortality Rating Tobacco Budworm 3rd Instar ([2]; 100 ppm) | Mortality Rating Tobacco Budworm 3rd Instar ([2]; 1000 ppm) | LC50 (Tobacco Budworm; Heliothis virescens, read-out: LC50 Tobacco Budworm) | Mortality Rating Southern Armyworm (Southern Armyworm; 10 ppm) | LC50 (Tobacco Budworm; [3]) | LC50 (Southern Armyworm) | LC50 Southern Armyworm (Southern Armyworm; southern armyworm, in vivo) | Mortality Rating Tobacco Budworm 3rd Instar ([2]; 10 ppm) | Mortality Rating Tobacco Budworm 1st Instar ([1]; 100 ppm) | reduced feeding (R) Tobacco Budworm 1st Instar ([1]; 100 ppm) | reduced feeding (R) Southern Armyworm (Southern Armyworm; 100 ppm) | Mortality Rating Tobacco Budworm 1st Instar ([1]; 10 ppm) | reduced feeding (R) Tobacco Budworm 3rd Instar ([2]; 100 ppm) | reduced feeding (R) Tobacco Budworm 3rd Instar ([2]; 1000 ppm) |
| --- | --- | --- | --- | --- | --- | --- | --- | --- | --- | --- | --- | --- | --- | --- | --- | --- | --- |
| N=C(NN=Cc1ccc(C(F)(F)F)cc1)N(N=Cc1ccc(C(F)(F)F)cc1)C(=O)NCCCl [CF3 / CF3 / ClCH2 CH2 / H, allophanimidic acid, 4-(2-chloroethyl)-2-{[p-(trifluoromethyl)benzylidene]amino}-allophanimidicacid [p-(trifluoromethyl)benzylidene]hydrazide] | 9 (100%) | 9 (100%) | 0 (No effect) | 4 (46-55%) | 9 (100%) | 654 µg/mL (≈ 1290 µM) | – | – | – | – | – | – | – | – | – | – | – |
| CN(C)C(=O)N(N=Cc1ccc(OC(F)(F)F)cc1)C(=N)NN=Cc1ccc(OC(F)(F)F)cc1 [CF3 O / CF3 O / CH3 / CH3] | 9 (100%) | 9 (100%) | – | 3 (36-45%) | 9 (100%) | – | 9 (100%) | 77 µg/mL (≈ 153 µM) | – | – | – | – | – | – | – | – | – |
| CN(C)C(=O)N(N=Cc1ccc(OC(F)(F)C(Cl)Cl)cc1)C(=N)NN=Cc1ccc(OC(F)(F)C(Cl)Cl)cc1 [HCCl2 CF2 O / HCCl2 CF2 O / CH3 / CH3] | 9 (100%) | 9 (100%) | – | 2 (26-35%) | 0 (No effect) | – | – | 140 µg/mL (≈ 221 µM) | 26 µg/mL (≈ 41 µM) | – | – | – | – | – | – | – | – |
| N=C(NN=Cc1ccc(C(F)(F)F)cc1)N(N=Cc1ccc(C(F)(F)F)cc1)C(=O)N1CCCC1 [CF3 / CF3 / (CH2)4] | 9 (100%) | 9 (100%) | – | 4 (46-55%) | 9 (100%) | – | 9 (100%) | 1000 µg/mL (≈ 2010 µM) | 18 µg/mL (≈ 36.1 µM) | 14 ppm | 0 (No effect) | – | – | – | – | – | – |
| CCNC(=O)N(N=Cc1ccc(C(F)(F)F)cc1)C(=N)NN=Cc1ccc(C(F)(F)F)cc1 [CF3 / CF3 / C2 H5 / H] | 0 (No effect) | 9 (100%) | 0 (No effect) | – | 0 (No effect) | – | – | – | – | – | – | – | – | – | – | – | – |
| CN(C)C(=O)N(N=Cc1ccc(Cl)cc1)C(=N)NN=Cc1ccc(Cl)cc1 [Cl / Cl / CH3 / CH3] | 0 (No effect) | 9 (100%) | 0 (No effect) | 0 (No effect) | 0 (No effect) | – | – | – | – | – | – | – | – | – | – | – | – |
| N=C(NN=Cc1ccc(OC(F)(F)C(F)F)cc1)NN=Cc1ccc(OC(F)(F)C(F)F)cc1 [HCF2 CF2 O / B, 1,3-bis{[p-(tetrafluoroethoxy)benzylidene]-amino}guanidine] | 9 (100%) | 9 (100%) | 9 (100%) | 0 (No effect) | 9 (100%) | – | 0 (No effect) | – | – | – | – | 0 (No effect) | R | – | – | – | – |
| N=C(NN=Cc1ccc(Cl)cc1)NN=Cc1ccc(Br)cc1 [Cl / Br / HCl] | 2 (26-35%) | 9 (100%) | 0 (No effect) | – | 0 (No effect) | – | – | – | – | – | – | – | – | R | – | – | – |
| N=C(NN=Cc1ccc(F)cc1)NN=Cc1ccc(F)cc1 [F / B] | 2 (26-35%) | 9 (100%) | 0 (No effect) | – | 3 (36-45%) | – | – | – | – | – | – | 0 (No effect) | – | – | – | – | – |
| N=C(NN=Cc1ccc(C(F)(F)F)cc1)NN=Cc1ccc(C(F)(F)F)cc1 [CF3 / HCl] | 9 (100%) | 9 (100%) | 9 (100%) | 0 (No effect) | 5 (56-65%) | – | 0 (No effect) | – | – | – | – | 0 (No effect) | R | – | 0 (No effect) | R | – |
| N=C(NN=Cc1ccc(OC(F)F)cc1)NN=Cc1ccc(OC(F)F)cc1 [HCF2 O / S] | 8 (86-99%) | 9 (100%) | 0 (No effect) | – | 0 (No effect) | – | 0 (No effect) | – | – | – | – | – | – | – | – | – | – |
| CN(C)C(=O)N(N=Cc1ccc(OC(F)(F)C(F)Cl)cc1)C(=N)NN=Cc1ccc(OC(F)(F)C(F)Cl)cc1 (stereo not shown) [drawing 40 / drawing 41 / CH3 / CH3] | 9 (100%) | 9 (100%) | – | 4 (46-55%) | 9 (100%) | – | 9 (100%) | 201 µg/mL (≈ 334 µM) | – | – | 0 (No effect) | – | – | – | – | – | – |
| N=C(NN=Cc1ccc(C(F)(F)F)cc1)NN=Cc1ccc(C(F)(F)F)cc1 [CF3 / B, 1,3-bis{[p-(trifluoromethyl)benzylidene]amino}guanidine] | 9 (100%) | 9 (100%) | 6 (66-75%) | 0 (No effect) | 8 (86-99%) | – | 0 (No effect) | – | – | – | – | 0 (No effect) | – | – | – | – | – |
| CNC(=O)N(N=Cc1ccc(OC(F)F)cc1)C(=N)NN=Cc1ccc(OC(F)F)cc1 [HCF2 O / HCF2 O / CH3 / H] | 0 (No effect) | 9 (100%) | 7 (76-85%) | – | 0 (No effect) | – | – | – | – | – | – | – | – | – | – | – | – |
| CN(C)C(=O)N(N=Cc1ccc(OC(F)F)cc1)C(=N)NN=Cc1ccc(OC(F)F)cc1 [HCF2 O / HCF2 O / CH3 / CH3] | 9 (100%) | 9 (100%) | 0 (No effect) | – | 0 (No effect) | – | 0 (No effect) | – | 75 µg/mL (≈ 160 µM) | – | – | – | – | – | – | – | – |
| N=C(NN=Cc1ccc(Br)cc1)NN=Cc1ccc(C(F)(F)F)cc1 [CF3 / Br / HCl] | – | 9 (100%) | 9 (100%) | 0 (No effect) | 0 (No effect) | – | – | – | – | – | 0 (No effect) | 0 (No effect) | R | – | 0 (No effect) | R | R |
